According to US6339081B1, “Composition and use” (priority 1996, dated 2002):

Assays:
Type in all cases: cell-based
mixed bacterial culture = assay: Preservation of unpreserved latex, repeated challenge with mixed bacterial culture; parameters: key to Viable bacteria, Third inoculum (days) 5 / Viable bacteria, Third inoculum (days) 7 / Viable bacteria, First inoculum (days) 3 / Viable bacteria, First inoculum (days) 5 / Viable bacteria, First inoculum (days) 7 / Viable bacteria, Second inoculum (days) 3 / Viable bacteria, Second inoculum (days) 5 / Viable bacteria, Second inoculum (days) 7 / Viable bacteria, Third inoculum (days) 3: C is confluent growth over the surface; − is no visible colonies; + is few visible colonies; ++ is clusters of discreet colonies; conditions: latex
Protocol: Aliquots (25 parts) of unpreserved latex containing 50% by weight solids of a copolymer of 2-ethylhexylacrylate/acrylic acid at pH 8.5 were formulated with zinc acetate and the 2:1 zinc complex of 3-hydroxy4-methyl thiazol-2(3H)-thione in the amounts shown in Table 1 below. After formulation, each aliquot was stored at 20° C. for 1 week prior to inoculation with a mixed bacterial culture.
The bacterial culture was prepared by culturing the following seven bacteria in nutrient agar for 24 hours at 30° C.
Each of the individual bacterium was prepared at a concentration of 10^8 cells/ml in quarter strength Ringers solution by means of a Thoma counting chamber. The mixed inoculum was prepared by mixing equal volumes of the cultures containing the individual bacterium.
The latex aliquots were repeatedly inoculated at 0, 7 and 14 day intervals with 0.5 ml mixed inoculum (2×10^6 cells/ml) and incubated at 30° C. The number of viable bacteria was determined by streaking a small portion of each aliquot of latex onto nutrient agar after 3, 5 and 7 days followed by visible assessment after incubation for 2 days at 30° C.

[1] = system: contaminated matt paint millbase; assay: Viable cells in contaminated matt paint millbase; parameters: key to Viable cells after (days) 5 / Viable cells after (days) 7 / Viable cells after (days) 14: C is confluent growth over the surface; − is no visible colonies; + is few visible colonies; ++ is clusters of discreet colonies
Protocol: 25 ml Aliquots of a contaminated matt paint millbase were formulated with the 2:1 zinc complex of 3-hydroxy-4-methylthiazol-2(3H)-thione and zinc acetate as shown in Table 2 below. The number of variable cells was determined by streaking a small portion of each aliquot of millbase onto nutrient agar after 5, 7 and 14 days. The number of cells was determined by visible assessment following incubation for 2 days at 30° C.

[2] = system: Pseudomonas aeruginosa NCIB 10421; assay: MIC and Fractional Inhibitory Concentration (FIC) in microtitre array; conditions: single component
Protocol: The gram negative bacterium, Pseudomonas aeruginosa NCIB 10421 was grown in nutrient broth to stationary phase during 18 hours and contained approximately 10^9 organisms/ml. A 0.1% (v/v) inoculum was used to seed fresh nutrient broth and 100 μl was then added to each well of a microtitre plate, except for the first well which contained 200 μl.
Solutions of zinc acetate (ZnAc) and the 2:1 zinc complex of 3-hydroxy-4-methylthiazol-2(3H)-thione (ZHMT), respectively, were prepared in nutrient broth at twice the final concentration to be used in the microtitre array. A microtitre array was prepared with concentration of zinc acetate and ZHMT from twice the MIC down to zero concentration in a 10×10 array. Since the array contains only 96 wells, the highest and lowest concentration of the zinc acetate and ZHMT were omitted. The dilution of the ZHMT was doubled across the ordinate axis of the array by transferring 100 μl aliquots so that the final volume in each well was 200 μl. The microtitre plate was then incubated for 16 to 24 hours at 37° C. and the presence of bacterial growth assessed visually.
The FIC is defined as the sum of the fractional inhibitory concentration of each component. The FIC of the individual component is the ratio of the concentration of the component in the binary mixture divided by its MIC.

mixed inoculum = assay: Preservation of styrene-acrylic emulsion paint, challenge with mixed inoculum; parameters: key to Bacterial growth, First Inoculum Days 4 / Bacterial growth, First Inoculum Days 7 / Bacterial growth, Second Inoculum Days 4 / Bacterial growth, Second Inoculum Days 7 / Bacterial growth, Second Inoculum Days 14 / Bacterial growth, Third Inoculum Days 4 / Bacterial growth, Third Inoculum Days 7 / Bacterial growth, Third Inoculum Days 21: − = no growth (no visible colonies); + = light growth (a few visible colonies); ++ = moderate growth (discrete colonies visible, some coalescence); +++ = dense, confluent growth (coalescing colonies visible throughout streak); conditions: for Bacterial growth, First Inoculum Days 4 / Bacterial growth, First Inoculum Days 7 / Bacterial growth, Second Inoculum Days 4 / Bacterial growth, Second Inoculum Days 7 / Bacterial growth, Second Inoculum Days 14 / Bacterial growth, Third Inoculum Days 4 / Bacterial growth, Third Inoculum Days 7 / Bacterial growth, Third Inoculum Days 21: emulsion paint
Protocol: An inoculum was prepared containing the following micro-organisms:
Each of the individual bacterium was cultured in nutrient agar and incubated at 30° C. for 24 hours followed by suspension in quarter strength Ringers solution by means of a Thoma countering chamber to give 10^8 cells/ml. A mixed inoculum was prepared by combining equal volumes.
An aliquot of the starch containing the ZHMT, and optionally zinc acetate, was inoculated weekly with 0.5 ml of the mixed inoculum on three occasions to give 2×10^6 cells/ml. The aliquots were then incubated at 30° C. and examined for bacterial growth by streaking a small sample onto nutrient agar and incubating at 30° C. for 2 days prior to visual examination.
Aliquots of a styrene-acrylic emulsion paint were treated with the 2:1 zinc complex of 3-hydroxy-4-methylthiazol-2(3H)-thione (ZHMT) optionally containing zinc acetate (ZnAc) or zinc oxide (ZnO). These aliquots were challenged with the mixed inoculum described in Example 5 and examined for bacterial growth as described in this previous example.

[3] = Amount 25 ppm of each component present
[4] = Amount 50 ppm of each component present
[5] = Amount 100 ppm of each component present
[6] = Amount 200 ppm of each component present

Cc1csc(=S)n1[O-].Cc1csc(=S)n1[O-].[Zn+2] [ZHMT, 2:1 zinc complex of 3-hydroxy-4-methylthiazol-2(3H)-thione]
1: FIC ([2]; relative conc. 1)
significantly enhanced: activity in the presence of both zinc salts (mixed bacterial culture; especially after repeated challenge)
−: Viable bacteria, First inoculum (days) 3 (mixed bacterial culture; [3]) | Viable bacteria, First inoculum (days) 5 (mixed bacterial culture; [3]) | Viable bacteria, First inoculum (days) 7 (mixed bacterial culture; [3]) | Viable bacteria, First inoculum (days) 5 (mixed bacterial culture; [4]) | Viable bacteria, First inoculum (days) 7 (mixed bacterial culture; [4]) | Viable bacteria, First inoculum (days) 5 (mixed bacterial culture; [5]) | Viable bacteria, First inoculum (days) 7 (mixed bacterial culture; [5]) | Viable bacteria, Second inoculum (days) 7 (mixed bacterial culture; [5]) | Viable bacteria, First inoculum (days) 5 (mixed bacterial culture; [6]) | Viable bacteria, First inoculum (days) 7 (mixed bacterial culture; [6]) | Viable bacteria, Second inoculum (days) 7 (mixed bacterial culture; [6]) | Bacterial growth, First Inoculum Days 4 (mixed inoculum; Conc. 10 (ppm ZHMT)) | Bacterial growth, First Inoculum Days 7 (mixed inoculum; Conc. 10 (ppm ZHMT)) | Bacterial growth, First Inoculum Days 4 (mixed inoculum; Conc. 25 (ppm ZHMT)) | Bacterial growth, First Inoculum Days 7 (mixed inoculum; Conc. 25 (ppm ZHMT)) | Bacterial growth, First Inoculum Days 4 (mixed inoculum; Conc. 50 (ppm ZHMT)) | Bacterial growth, First Inoculum Days 7 (mixed inoculum; Conc. 50 (ppm ZHMT)) | Bacterial growth, First Inoculum Days 4 (mixed inoculum; Conc. 100 (ppm ZHMT)) | Bacterial growth, First Inoculum Days 7 (mixed inoculum; Conc. 100 (ppm ZHMT)) | Bacterial growth, First Inoculum Days 4 (mixed inoculum; Conc. 200 (ppm ZHMT)) | Bacterial growth, First Inoculum Days 7 (mixed inoculum; Conc. 200 (ppm ZHMT))
32 ppm: Minimum Inhibitory Concentrations (MIC) ([2]; nutrient broth, 16 to 24 hours at 37° C.)
+: Viable bacteria, Second inoculum (days) 5 (mixed bacterial culture; [4]) | Viable bacteria, Second inoculum (days) 7 (mixed bacterial culture; [4]) | Viable bacteria, Second inoculum (days) 5 (mixed bacterial culture; [5]) | Viable bacteria, First inoculum (days) 3 (mixed bacterial culture; [6]) | Viable bacteria, Second inoculum (days) 5 (mixed bacterial culture; [6])
> 200 ppm: ZHMT level at which the paint is preserved (mixed inoculum; styrene-acrylic emulsion paint)
++: Viable bacteria, First inoculum (days) 3 (mixed bacterial culture; [4]) | Viable bacteria, Second inoculum (days) 3 (mixed bacterial culture; [4]) | Viable bacteria, First inoculum (days) 3 (mixed bacterial culture; [5]) | Viable bacteria, Second inoculum (days) 3 (mixed bacterial culture; [5]) | Viable bacteria, Third inoculum (days) 3 (mixed bacterial culture; [5]) | Viable bacteria, Third inoculum (days) 5 (mixed bacterial culture; [5]) | Viable bacteria, Third inoculum (days) 7 (mixed bacterial culture; [5]) | Viable bacteria, Second inoculum (days) 3 (mixed bacterial culture; [6]) | Viable bacteria, Third inoculum (days) 3 (mixed bacterial culture; [6]) | Viable bacteria, Third inoculum (days) 5 (mixed bacterial culture; [6]) | Viable bacteria, Third inoculum (days) 7 (mixed bacterial culture; [6]) | Bacterial growth, Second Inoculum Days 4 (mixed inoculum; Conc. 200 (ppm ZHMT)) | Bacterial growth, Second Inoculum Days 7 (mixed inoculum; Conc. 200 (ppm ZHMT)) | Bacterial growth, Second Inoculum Days 14 (mixed inoculum; Conc. 200 (ppm ZHMT))
+++: Bacterial growth, Second Inoculum Days 4 (mixed inoculum; Conc. 10 (ppm ZHMT)) | Bacterial growth, Second Inoculum Days 7 (mixed inoculum; Conc. 10 (ppm ZHMT)) | Bacterial growth, Second Inoculum Days 14 (mixed inoculum; Conc. 10 (ppm ZHMT)) | Bacterial growth, Third Inoculum Days 4 (mixed inoculum; Conc. 10 (ppm ZHMT)) | Bacterial growth, Third Inoculum Days 7 (mixed inoculum; Conc. 10 (ppm ZHMT)) | Bacterial growth, Third Inoculum Days 21 (mixed inoculum; Conc. 10 (ppm ZHMT)) | Bacterial growth, Second Inoculum Days 4 (mixed inoculum; Conc. 25 (ppm ZHMT)) | Bacterial growth, Second Inoculum Days 7 (mixed inoculum; Conc. 25 (ppm ZHMT)) | Bacterial growth, Second Inoculum Days 14 (mixed inoculum; Conc. 25 (ppm ZHMT)) | Bacterial growth, Third Inoculum Days 4 (mixed inoculum; Conc. 25 (ppm ZHMT)) | Bacterial growth, Third Inoculum Days 7 (mixed inoculum; Conc. 25 (ppm ZHMT)) | Bacterial growth, Third Inoculum Days 21 (mixed inoculum; Conc. 25 (ppm ZHMT)) | Bacterial growth, Second Inoculum Days 4 (mixed inoculum; Conc. 50 (ppm ZHMT)) | Bacterial growth, Second Inoculum Days 7 (mixed inoculum; Conc. 50 (ppm ZHMT)) | Bacterial growth, Second Inoculum Days 14 (mixed inoculum; Conc. 50 (ppm ZHMT)) | Bacterial growth, Third Inoculum Days 4 (mixed inoculum; Conc. 50 (ppm ZHMT)) | Bacterial growth, Third Inoculum Days 7 (mixed inoculum; Conc. 50 (ppm ZHMT)) | Bacterial growth, Third Inoculum Days 21 (mixed inoculum; Conc. 50 (ppm ZHMT)) | Bacterial growth, Second Inoculum Days 4 (mixed inoculum; Conc. 100 (ppm ZHMT)) | Bacterial growth, Second Inoculum Days 7 (mixed inoculum; Conc. 100 (ppm ZHMT)) | Bacterial growth, Second Inoculum Days 14 (mixed inoculum; Conc. 100 (ppm ZHMT)) | Bacterial growth, Third Inoculum Days 4 (mixed inoculum; Conc. 100 (ppm ZHMT)) | Bacterial growth, Third Inoculum Days 7 (mixed inoculum; Conc. 100 (ppm ZHMT)) | Bacterial growth, Third Inoculum Days 21 (mixed inoculum; Conc. 100 (ppm ZHMT)) | Bacterial growth, Third Inoculum Days 4 (mixed inoculum; Conc. 200 (ppm ZHMT)) | Bacterial growth, Third Inoculum Days 7 (mixed inoculum; Conc. 200 (ppm ZHMT)) | Bacterial growth, Third Inoculum Days 21 (mixed inoculum; Conc. 200 (ppm ZHMT))
C: Viable bacteria, Second inoculum (days) 3 (mixed bacterial culture; [3]) | Viable bacteria, Second inoculum (days) 5 (mixed bacterial culture; [3]) | Viable bacteria, Second inoculum (days) 7 (mixed bacterial culture; [3]) | Viable bacteria, Third inoculum (days) 3 (mixed bacterial culture; [3]) | Viable bacteria, Third inoculum (days) 5 (mixed bacterial culture; [3]) | Viable bacteria, Third inoculum (days) 7 (mixed bacterial culture; [3]) | Viable bacteria, Third inoculum (days) 3 (mixed bacterial culture; [4]) | Viable bacteria, Third inoculum (days) 5 (mixed bacterial culture; [4]) | Viable bacteria, Third inoculum (days) 7 (mixed bacterial culture; [4]) | Viable cells after (days) 5 [1, 3] | Viable cells after (days) 7 [1, 3] | Viable cells after (days) 14 [1, 3] | Viable cells after (days) 5 [1, 4] | Viable cells after (days) 7 [1, 4]
